What was measured:
[1] = tested on: phosphorylation of MCM2 S53 in colo205 cells; assay: Phosphorylated MCM2 MSD electrochemiluminescence assay; type: cell-based; conditions: Homo sapiens, COLO 205, 20 h incubation, read-out: pMCM2-S53 MSD Colo205 IC50
Description: Phosphorylated MCM2 MSD Electrochemiluminescence Assay
The effect of CDC7 inhibitors on cellular phosphorylation of the CDC7 substrate MCM2 was determined using the following protocol:
A total of 40,000 colo205 cells in 100 uL culture medium (1640 medium+10% Fetal bovine serum+1% Penicillin-Streptomycin) were plated in 96-well cell culture plates and allowed to attach for 6 hours. 3-fold serial dilutions of test compounds were prepared in completed PBS at 25×final concentration and 4 uL of each were added to the cells and incubated for 20 hours at 37° C., 5% CO2. Each concentration was tested in duplicate. After the 20 h incubation, cells were washed with 150 uL PBS and lysed with 40 uL MSD lysis buffer (obtained from Meso Scale Diagnostics) supplied with 1×complete ULTRA cocktail inhibitor (obtained from Roche). To detect phosphorylation of MCM2 S53, 30 μL of capture antibody solution (obtained from Abnova, catalog number H00004171-MO1, 1:500) was added to each well of MULTI-ARRAY 96-well High Bind Plate, and incubated overnight. The antibody solution was removed, wells blocked with BSA solution and plates washed, followed by addition of 30 ul of cell lysate per well. After 2 h incubation, plates were washed. 30 μL of 1×detection antibody solution (obtained from Abcam, catalog number ab109133, 1:1000) was then added to each well and incubate for 1 hour. Plates were washed and 30 μL of 1×secondary antibody solution (obtained from MSD, catalog number R32AB-1, 1:5000) was added to each well and incubate for 1 hour. Plates were washed and 150 µL of 1×Read Buffer T was added to each well of the MSD plate. The electrochemiluminescence signal was measured on a MESO SECTOR S600 plate reader. The percentage of remaining phosphorylated MCM2 signal was calculated following the equation below.
[formula] • HC (high control): Cells treated with DMSO • Cpds: Cells treated with test compounds • LC (low control): Cells treated with positive control CDC7 inhibitor

[2] = molecular target: Full length human CDC7 protein co-expressed with DBF4 (Homo sapiens (Human), UniProt O00311); assay: CDC7 kinase biochemical assay (ADP-Glo, PDKtide substrate); conditions: 0.1 nM CDC7/DBF4, 1 uM ATP, 10 uM PDKtide, 4 h
Description: CDC7 Kinase Biochemical Assay Protocol:
Full length human CDC7 protein co-expressed with DBF4 was purchased from SignalChem (China). CDC7 kinase activity was determined with PDKtide (SignalChem) as a substrate and by measuring ADP production using the ADP-Glo™ Kinase Assay kit (Promega) following the manufacturers instructions. The kinase reaction was performed using the following conditions: Buffer: 40 mM Tris pH 7.5, 20 mM MgCl2, 0.1 mg/ml BSA and 50 uM DTT. Final reaction mix contained 0.1 nM CDC7/DBF4, 1 uM ATP and 10 uM PDKtide. The kinase reaction time was 4 h. The ADP-Glo signal was measured using an EnVision plate reader (PerkinELmer).
Percent inhibition of CDC7 kinase activity was calculated based on the following formula:
[formula] • Ssample: the signal of compounds • SHigh Ctrl: the signal of high control (DMSO) • SLow Ctrl: the signal of low control (positive control CDC7 inhibitor)

Sequence of Full length human CDC7 protein co-expressed with DBF4 (O00311 whole entry): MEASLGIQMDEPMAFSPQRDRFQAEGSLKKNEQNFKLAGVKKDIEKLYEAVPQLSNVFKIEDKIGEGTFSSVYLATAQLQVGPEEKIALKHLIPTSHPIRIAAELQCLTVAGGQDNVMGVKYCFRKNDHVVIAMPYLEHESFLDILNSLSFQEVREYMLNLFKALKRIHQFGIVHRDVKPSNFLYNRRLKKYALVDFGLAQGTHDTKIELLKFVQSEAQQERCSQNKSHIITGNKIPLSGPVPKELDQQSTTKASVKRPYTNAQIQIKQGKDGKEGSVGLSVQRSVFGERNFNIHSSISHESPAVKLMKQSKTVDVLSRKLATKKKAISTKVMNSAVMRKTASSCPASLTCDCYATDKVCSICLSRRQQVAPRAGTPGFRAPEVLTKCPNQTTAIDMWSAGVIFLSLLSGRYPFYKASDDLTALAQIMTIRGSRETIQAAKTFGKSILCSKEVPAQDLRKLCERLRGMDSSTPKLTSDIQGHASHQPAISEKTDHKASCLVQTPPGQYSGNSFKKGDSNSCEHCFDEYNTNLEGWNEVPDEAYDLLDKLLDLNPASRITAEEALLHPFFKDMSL
Sequence of Full length human CDC7 protein co-expressed with DBF4 (Q9UBU7 whole entry partner): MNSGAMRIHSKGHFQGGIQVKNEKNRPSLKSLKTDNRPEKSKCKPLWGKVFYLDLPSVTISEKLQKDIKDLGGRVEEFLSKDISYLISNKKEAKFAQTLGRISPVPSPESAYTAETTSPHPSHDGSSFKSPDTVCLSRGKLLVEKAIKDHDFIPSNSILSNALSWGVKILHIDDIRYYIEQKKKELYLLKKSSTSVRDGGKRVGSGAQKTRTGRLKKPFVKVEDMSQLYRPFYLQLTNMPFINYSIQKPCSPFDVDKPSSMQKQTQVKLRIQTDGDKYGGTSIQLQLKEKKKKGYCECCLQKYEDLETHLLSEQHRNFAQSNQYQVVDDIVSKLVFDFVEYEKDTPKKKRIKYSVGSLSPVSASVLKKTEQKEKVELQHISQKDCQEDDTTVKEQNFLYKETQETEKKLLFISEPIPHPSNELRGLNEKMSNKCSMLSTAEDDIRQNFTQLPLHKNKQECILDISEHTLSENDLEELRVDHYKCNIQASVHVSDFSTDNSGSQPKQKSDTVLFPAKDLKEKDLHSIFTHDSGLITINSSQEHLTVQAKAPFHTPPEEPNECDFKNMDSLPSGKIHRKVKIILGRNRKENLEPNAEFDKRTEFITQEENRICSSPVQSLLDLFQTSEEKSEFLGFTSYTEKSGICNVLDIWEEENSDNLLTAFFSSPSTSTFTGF

SMILES	IC50 [1] [nM]	IC50 [2] [nM]
Cc1[nH]c(=O)c2sc(-c3ccncc3)c3c2c1C[C@@H](C)O3 (single isomer, unassigned) [Example 7]	100 to 1000	< 1
Cc1[nH]c(=O)c2sc(-c3ccncc3)c3c2c1C[C@H](C)O3 (single isomer, unassigned) [Example 8]	100 to 1000	< 1
Cc1[nH]c(=O)c2sc(-c3ccncc3)c3c2c1CCCO3 [Example 1, 5-methyl-1-(pyridin-4-yl)-4,6,7,8-tetrahydro-3H-9-oxa-2-thia-4-azabenzo[cd]azulen-3-one]	100 to 1000	< 1
Cc1[nH]c(=O)c2sc(-c3cn[nH]c3)c3c2c1CCCO3 [Example 5, 5-methyl-1-(1H-pyrazol-4-yl)-4,6,7,8-tetrahydro-3H-9-oxa-2-thia-4-azabenzo[cd]azulen-3-one]	< 100	< 1
O=c1[nH]c(CN2CCC2)c2c3c(c(-c4cn[nH]c4)sc13)OCCC2 [Example 13, 5-(azetidin-1-ylmethyl)-1-(1H-pyrazol-4-yl)-4,6,7,8-tetrahydro-3H-9-oxa-2-thia-4-azabenzo[cd]azulen-3-one]	< 100	< 1
CC(C)NCc1[nH]c(=O)c2sc(-c3cn[nH]c3)c3c2c1CCCO3 [Example 24, 5-((isopropylamino)methyl)-1-(1H-pyrazol-4-yl)-4,6,7,8-tetrahydro-3H-9-oxa-2-thia-4-azabenzo[cd]azulen-3-one]	100 to 1000	< 1
O=c1[nH]c(COC2CCC2)c2c3c(c(-c4cn[nH]c4)sc13)OCCC2 [Example 55, 5-(cyclobutoxymethyl)-1-(1H-pyrazol-4-yl)-4,6,7,8-tetrahydro-3H-9-oxa-2-thia-4-azaben-zo[cd]azulen-3-one]	< 100	< 1

Now from value to compound:

IC50 [1] [nM]	IC50 [2] [nM]	SMILES
< 100	< 1	C[C@@H](c1[nH]c(=O)c2sc(-c3cn[nH]c3)c3c2c1CCCO3)N1CCC1 (single isomer, unassigned) [Example 30]
< 100	< 1	C[C@H](c1[nH]c(=O)c2sc(-c3cn[nH]c3)c3c2c1CCCO3)N1CCC1 (single isomer, unassigned) [Example 31]
100 to 1000	< 1	C[C@H](c1[nH]c(=O)c2sc(-c3cn[nH]c3)c3c2c1CCCO3)n1cccn1 (single isomer, unassigned) [Example 46]
< 100	< 1	C[C@@H](c1[nH]c(=O)c2sc(-c3cn[nH]c3)c3c2c1CCCO3)n1cccn1 (single isomer, unassigned) [Example 47]
< 100	< 1	CC[C@](C)(O)c1[nH]c(=O)c2sc(-c3cn[nH]c3)c3c2c1CCCO3 (single isomer, unassigned) [Example 57]
< 100	< 1	CC[C@@](C)(O)c1[nH]c(=O)c2sc(-c3cn[nH]c3)c3c2c1CCCO3 (single isomer, unassigned) [Example 58]
< 100	< 1	CC(C)(O)c1[nH]c(=O)c2sc(-c3cn[nH]c3)c3c2c1CCCO3 [Example 28, 5-(2-hydroxypropan-2-yl)-1-(1H-pyrazol-4-yl)-4,6,7,8-tetrahydro-3H-9-oxa-2-thia-4-azabenzo[cd]azulen-3-one]
< 100	< 1	O=c1[nH]c(CN2CCC2)c2c3c(c(-c4cn[nH]c4)sc13)OCC(F)(F)C2 [Example 44, 7-(azetidin-1-ylmethyl)-10,10-difluoro-2-(1H-pyrazol-4-yl)-12-oxa-3-thia-6-azatricyclo[6.4.1.0^4,13]trideca-1,4(13),7-trien-5-one]
≥ 1000	1 to 10	O=C(c1[nH]c(=O)c2sc(-c3cn[nH]c3)c3c2c1CCCO3)N1CCCC1 [Example 51, 2-(1H-pyrazol-4-yl)-7-(pyrrolidine-1-carbonyl)-12-oxa-3-thia-6-azatricyclo[6.4.1.0^4,13]-trideca-1,4(13),7-trien-5-one]
≥ 1000	< 1	Nc1[nH]c(=O)c2sc(-c3cn[nH]c3)c3c2c1CCCO3 [Example 54, 7-amino-2-(1H-pyrazol-4-yl)-12-oxa-3-thia-6-azatricyclo[6.4.1.0^4,13]trideca-1,4(13),7-trien-5-one]
